# Columns and labels:
# Format in all cases: functional
# Staphylococcus aureus [1] = test: Antibacterial activity against Staphylococcus aureus USA300 incubated for 16 to 24 hrs by broth microdilution method; settings: time 16-24 hrs
# Staphylococcus aureus [2] = test: Antibacterial activity against Staphylococcus aureus USA400 incubated for 16 to 24 hrs by broth microdilution method; settings: time 16-24 hrs
# Staphylococcus aureus [3] = test: Antibacterial activity against Staphylococcus aureus DU1090 incubated for 16 to 24 hrs by broth microdilution method; settings: time 16-24 hrs
# Staphylococcus aureus [4] = test: Antibacterial activity against Staphylococcus aureus NCTC 8325-4 incubated for 16 to 24 hrs by broth microdilution method; settings: time 16-24 hrs
# Staphylococcus aureus [5] = test: Antibacterial activity against Staphylococcus aureus ATCC 25923 incubated for 16 to 24 hrs by broth microdilution method; settings: time 16-24 hrs
# Staphylococcus aureus [6] = test: Antibacterial activity against Staphylococcus aureus ATCC 25904 incubated for 16 to 24 hrs by broth microdilution method; settings: time 16-24 hrs
# Staphylococcus aureus [7] = test: Antibacterial activity against Staphylococcus aureus ATCC 29213 incubated for 16 to 24 hrs by broth microdilution method; settings: time 16-24 hrs
# Listeria monocytogenes [8] = test: Antibacterial activity against Listeria monocytogenes EGD incubated for 16 to 24 hrs by broth microdilution method; settings: time 16-24 hrs
# Listeria monocytogenes [9] = test: Antibacterial activity against Listeria monocytogenes ATCC 19115 incubated for 16 to 24 hrs by broth microdilution method; settings: time 16-24 hrs
# Staphylococcus aureus [10] = test: Antibacterial activity against methicillin-resistant Staphylococcus aureus MRSA 2 incubated for 16 to 24 hrs by broth microdilution method; settings: time 16-24 hrs
# Streptococcus suis = test: Antibacterial activity against Streptococcus suis ZY05719 incubated for 16 to 24 hrs by broth microdilution method; settings: time 16-24 hrs
# Staphylococcus aureus [11] = test: Antibacterial activity against methicillin-resistant Staphylococcus aureus MRSA 1 incubated for 16 to 24 hrs by broth microdilution method
# Staphylococcus aureus [12] = test: Induction of resistance development in Staphylococcus aureus USA300 assessed as fold increase in MIC incubated for 24 hrs measured after 14 passages by broth microdilution method
# [13] = Staphylococcus aureus, MRSA 1, time 16-24 hrs, read-out: MIC
Compound,MIC (Staphylococcus aureus [1]),MIC (Staphylococcus aureus [2]),MIC (Staphylococcus aureus [3]),MIC (Staphylococcus aureus [4]),MIC (Staphylococcus aureus [5]),MIC (Staphylococcus aureus [6]),MIC (Staphylococcus aureus [7]),MIC (Listeria monocytogenes [8]),MIC (Listeria monocytogenes [9]),MIC (Staphylococcus aureus [10]),MIC (Streptococcus suis),MIC (Staphylococcus aureus [11]; [13]),MIC (Staphylococcus aureus [11]; time 16-24 hrs),fold change (FC) (Staphylococcus aureus [12])
CN(C)c1cc(NC(=O)CNC(C)(C)C)c(O)c2c1C[C@H]1C[C@H]3[C@H](N(C)C)C(O)=C(C(N)=O)C(=O)[C@@]3(O)C(O)=C1C2=O [TIGECYCLINE],0.16 µg/mL,0.19 µg/mL,0.23 µg/mL,0.27 µg/mL,0.92 µg/mL,0.83 µg/mL,0.1 µg/mL,–,0.2 µg/mL,0.54 µg/mL,0.07 µg/mL,–,–,–
CNC(C)[C@@H]1CC[C@@H](N)[C@@H](O[C@H]2[C@H](O)[C@@H](O[C@H]3OC[C@](C)(O)[C@H](NC)[C@H]3O)[C@H](N)C[C@@H]2N)O1.CN[C@@H]1[C@@H](O)[C@@H](O[C@@H]2[C@@H](O)[C@H](O[C@H]3O[C@H](C(C)N)CC[C@H]3N)[C@@H](N)C[C@H]2N)OC[C@]1(C)O.CN[C@@H]1[C@@H](O)[C@@H](O[C@@H]2[C@@H](O)[C@H](O[C@H]3O[C@H](CN)CC[C@H]3N)[C@@H](N)C[C@H]2N)OC[C@]1(C)O (some centres not stated),4 µg/mL,3.67 µg/mL,1.54 µg/mL,5.33 µg/mL,2.67 µg/mL,> 4 µg/mL,3 µg/mL,–,6 µg/mL,> 4 µg/mL,6 µg/mL,> 4 µg/mL,5.33 µg/mL,–
CC1(C)S[C@H]([C@H](NC(=O)Cc2ccccc2)C(=O)NCc2ccccc2)N[C@H]1C(=O)N[C@H](Cc1ccccc1)[C@H](O)CC(=O)NCc1nc2ccccc2[nH]1,0.63 µg/mL,0.63 µg/mL,0.63 µg/mL,0.63 µg/mL,0.63 µg/mL,0.63 µg/mL,0.63 µg/mL,0.63 µg/mL,0.63 µg/mL,–,–,–,–,–
CN[C@H](CC(C)C)C(=O)N[C@H]1C(=O)N[C@@H](CC(N)=O)C(=O)N[C@H]2C(=O)N[C@H]3C(=O)N[C@H](C(=O)N[C@H](C(=O)O)c4cc(O)cc(O)c4-c4cc3ccc4O)[C@H](O)c3ccc(c(Cl)c3)Oc3cc2cc(c3O[C@@H]2O[C@H](CO)[C@@H](O)[C@H](O)[C@H]2O[C@H]2C[C@](C)(N)[C@H](O)[C@H](C)O2)Oc2ccc(cc2Cl)[C@H]1O [VANCOMYCIN],2.33 µg/mL,2.5 µg/mL,1.67 µg/mL,1.83 µg/mL,2.67 µg/mL,3 µg/mL,1.71 µg/mL,–,1.83 µg/mL,1.33 µg/mL,0.15 µg/mL,2.33 µg/mL,1.33 µg/mL,16
CCn1c(=O)c(C(=O)Nc2nnc(-c3ncccc3C)s2)c(O)c2ccccc21,> 8 µg/mL,> 8 µg/mL,> 8 µg/mL,> 8 µg/mL,> 8 µg/mL,> 8 µg/mL,> 8 µg/mL,> 8 µg/mL,> 8 µg/mL,–,–,–,–,–

# The remaining molecules from weak to strong by MIC (Staphylococcus aureus [1]), led by results:
MIC (Staphylococcus aureus [1]),MIC (Staphylococcus aureus [2]),MIC (Staphylococcus aureus [3]),MIC (Staphylococcus aureus [4]),MIC (Staphylococcus aureus [5]),MIC (Staphylococcus aureus [6]),MIC (Staphylococcus aureus [7]),MIC (Listeria monocytogenes [8]),MIC (Listeria monocytogenes [9]),Compound,MIC (Staphylococcus aureus [10]),MIC (Streptococcus suis),MIC (Staphylococcus aureus [11]; [13]),MIC (Staphylococcus aureus [11]; time 16-24 hrs),fold change (FC) (Staphylococcus aureus [12])
4.67 µg/mL,6.67 µg/mL,0.96 µg/mL,> 8 µg/mL,5.33 µg/mL,3.42 µg/mL,> 8 µg/mL,0.21 µg/mL,0.29 µg/mL,CCn1c(=O)c(C(=O)Nc2nnc(-c3ccc(C(F)(F)F)cn3)s2)c(O)c2ccccc21,–,–,–,–,–
0.46 µg/mL,1.29 µg/mL,0.5 µg/mL,1.25 µg/mL,0.46 µg/mL,0.48 µg/mL,0.67 µg/mL,0.49 µg/mL,0.5 µg/mL,CCn1c(=O)c(C(=O)Nc2nnc(-c3ccc(F)cn3)s2)c(O)c2ccccc21,–,–,–,–,–
0.17 µg/mL,0.08 µg/mL,0.02 µg/mL,0.05 µg/mL,0.04 µg/mL,0.04 µg/mL,0.2 µg/mL,0.02 µg/mL,0.02 µg/mL,CCn1c(=O)c(C(=O)Nc2nnc(-c3cccc(C)n3)s2)c(O)c2ccccc21,–,–,–,–,–
0.14 µg/mL,0.14 µg/mL,0.12 µg/mL,0.1 µg/mL,0.15 µg/mL,0.19 µg/mL,0.18 µg/mL,0.16 µg/mL,0.49 µg/mL,CCn1c(=O)c(C(=O)Nc2nnc(-c3cc(C)ccn3)s2)c(O)c2ccccc21,–,–,–,–,–
0.11 µg/mL,0.17 µg/mL,0.1 µg/mL,0.1 µg/mL,0.15 µg/mL,0.08 µg/mL,0.14 µg/mL,0.17 µg/mL,0.2 µg/mL,CCn1c(=O)c(C(=O)Nc2nnc(-c3ncccc3F)s2)c(O)c2ccccc21,–,–,–,–,–
0.06 µg/mL,0.07 µg/mL,0.05 µg/mL,0.27 µg/mL,0.2 µg/mL,0.19 µg/mL,1.13 µg/mL,0.06 µg/mL,0.05 µg/mL,CCn1c(=O)c(C(=O)Nc2nnc(-c3ccc(Br)cn3)s2)c(O)c2ccccc21,–,–,–,–,–

# From ChEMBL document CHEMBL6121054, “Discovery of Metabolic Reprogramming 2-Quinolones as Effective Antimicrobials for MRSA-Infected Wound Therapy” (J Med Chem, 2025)
